This note sets out measurements from US6723718B2, “Substituted α, β-anellated butyrolactones” (Bayer Aktiengesellschaft, priority 1998, dated 2004).

The subject of experiment [1] is subdural haematoma in the rat (SDH). Kind of experiment: Subdural haematoma in the rat (SDH). The experiment is classed as in vivo. As to conditions: 0.01 mg/kg/h intravenous continuous infusion directly up to 4 hours post-trauma. The procedure: Subdural Haematoma in the Rat (SDH)
Under anaesthesia, the animal's own blood is injected subdurally on one side. An infarct is formed under the haematoma. Substance administration is earned out according to different time schemes and via different administration routes (i.v., i.p.).
The determination of the infarct size is carried out as described in the model of permanent focal ischaemia in the rat (MCA-O).

In experiment [2] the test system is permanent focal cerebral ischaemia in the rat (MCA-O). As to the kind of experiment: Permanent focal cerebral ischaemia in the rat (MCA-O). The experiment is classed as in vivo. As to conditions: 0.01 mg/kg/h intravenous continuous infusion directly up to 4 hours after the occlusion, infarct size determined after 7 days. The protocol: Permanent Focal Cerebral Ischaemia in the Rat (MCA-O)
Under isoflurane anaesthesia, the middle cerebral artery is exposed on one side and the latter and its side branches are irreversibly sealed by means of electrocoagulation. As a result of the intervention a cerebral infarct is formed. During the operation, the body temperature of the animal is kept at 37° C. After wound closure and wearing off of the anaesthesia, the animals are again released into their cage. Substance administration is carried out according to different time schemes and via different administration routes (i.v., i.p.) after occlusion. The infarct size is determined after 7 days. To do this, the brain is removed, worked up histologically and the infarct volume is determined with the aid of a computer-assisted analysis system.

Consider `C=C1C[C@@H]2COC(=O)[C@]2(Cc2ccc3ccccc3c2)C1` [Example 35], for which the “% reduction of infarct volume” value in experiment [1] worked out at 51%; in experiment [2] it was 38%.
